Laboratory results published in article PMC12350473, “Pharmacokinetics and brain tissue distribution of Gastrodia elata extract in normal and cerebral ischemic rats: a comparative study” (Frontiers in Pharmacology, 2025).

What was measured:
[1] = Brain tissue distribution of GEB constituents after oral GEB extract in normal and MCAO rats; type: in vivo
Experimental: An independent cohort (n = 6/group) was sacrificed under deep anesthesia (pentobarbital sodium 40 mg/kg, i. p.) at 0.5 h, 1 h, 3 h, and 12 h post-final dosing. Cerebral perfusion was performed with ice-cold normal saline via left ventricular cannulation to eliminate residual blood. Whole brains were rapidly excised, weighed, and homogenized in four volumes of phosphate-buffered saline (pH 7.4) using a tissue grinder (Precellys 24, Bertin Technologies, France). Homogenates were centrifuged at 12,000 × g for 15 min at 4°C. The supernatants were filtered through 0.22 μm PVDF membranes and aliquoted into polypropylene tubes.
Weigh 300 mg of rat brain tissue and add 3 volumes of PBS solution. […] Collect the supernatant to obtain the test tissue homogenate. Take 400 µL of the homogenate, add 50 µL of internal standard solution and 1,150 µL of methanol, then vortex-mix for 5 min.

[2] = Plasma pharmacokinetics of GEB constituents after oral GEB extract in normal and MCAO rats (UPLC-MS/MS, non-compartmental); conditions: for AUC0-t / Cmax / AUC0−∞ / CLz/F / MRT0-t / T1/2 / Tmax / Vz/F: plasma
in vivo = conditions: male, Sprague-Dawley, rat, po
[3] = design: method as in Tang et al., 2015; conditions: ref Tang et al., 2015; cited from earlier work
[4] = tested on: cerebral ischemia in rats; assay: Therapeutic effect of GEB extract on cerebral ischemia (MCAO): mNSS, body weight, survival, TTC staining; type: in vivo; conditions: vs MCAO group, GEB low and high dose, nimodipine control
Experimental: High-dose GEB extract was prepared by adding 4.8 g of GEB extract in 40 mL of purified water to make a 120 mg/mL solution (calculated based on the human daily intake of 48 g of GEB).
The low dose of GEB was prepared by adding 2 g of GEB extract in 40 mL of purified water to make a 50 mg/mL solution (calculated based on the human daily intake of 20 g of GEB).
For preparing positive drugs, 2 nimodipine tablets (30 mg/tablet) were ground and added to 50 mL of purified water to make a 1.2 mg/mL solution (calculated based on the human daily intake of 120 mg of nimodipine).
After induction of deep anesthesia with pentobarbital (40 mg/kg), the rats were euthanized by cervical dislocation, followed by decapitation for brain removal. The brains were immediately flash-frozen in a freezer for 20 min. Then, the olfactory bulb and cerebellum were removed, the brain was cut into 6 coronal sections from anterior to posterior, stained with 1% TTC solution in the dark for 20 min at 37°C, and preserved in 4% paraformaldehyde for 30 min.
Rats were allocated into five groups: sham-operated (Sham), MCAO, low-dose GEB extract (GEB-L), high-dose GEB extract (GEB-H), and nimodipine control (NMDP). […] Longitudinal monitoring included body weight tracking and survival assessment, complemented by triphenyltetrazolium chloride (TTC) staining for cerebral infarction evaluation at study termination.

[5] = comparison among components after oral GEB extract
[6] = MCAO rats, GEB extract 1,200 mg/kg oral gavage once daily for 3 days
[7] = MCAO vs normal rats, range over PA, PB, PC, GAS, p < 0.05
[8] = MCAO rats, oral GEB extract 4.8 g/kg, n = 8
[9] = normal rats, oral GEB extract 4.8 g/kg, n = 8

| Compound | BBB penetration / cerebral distribution (in words) [1, 5] | AUC0-t [2, 6] | AUC0-t [2, 8] | AUC0−∞ [2, 8] | CLz/F [2, 8] [mL/min/kg] | Cmax [2, 8] | MRT0-t [2, 8] [h] | T1/2 [2, 8] [h] | Tmax [2, 8] [h] | Vz/F [2, 8] | Vz/F [2, 9] [L/kg] | AUC0-t (in vivo; plasma, 4.8 g/kg) [ng·h/mL] | AUC(0-inf) (in vivo; plasma, 4.8 g/kg) [ng·h/mL] | CL/F (in vivo; plasma, 4.8 g/kg) [mL/min/kg] | Cmax (in vivo; plasma, 4.8 g/kg) [ng/mL] | MRT last (in vivo; plasma, 4.8 g/kg) [h] | Tmax (in vivo; plasma, 4.8 g/kg) [h] | half-life (in vivo; plasma, 4.8 g/kg) [h] | other results |
| --- | --- | --- | --- | --- | --- | --- | --- | --- | --- | --- | --- | --- | --- | --- | --- | --- | --- | --- | --- |
| OCc1ccc(O[C@@H]2O[C@H](CO)[C@@H](O)[C@H](O)[C@H]2O)cc1 [GAS, gastrodin] | limited BBB penetration | 4,836 ± 791 ng*h/mL | 4,835.6 ± 790.9 ng*h/mL | 4,914.0 ± 728.3 ng*h/mL | 53.3 ± 8.3 | 4,646.2 ± 1,195.9 ng/mL | 0.88 ± 0.20 | 0.58 ± 0.29 | 0.27 ± 0.16 | 2.7 ± 1.6 L/kg | – | – | – | – | – | – | – | – | cerebral concentration ([1]; normal rats, brain tissue, GEB extract oral): < 40 ng/mL; Cmax ([2]; MCAO rats, GEB extract 1,200 mg/kg oral once daily for 3 days): 4,646 ± 1,195 ng/mL; CLz/F increase in MCAO rats compared to controls [2, 7]: 1.4–2.0 fold; AUC0-t (in vivo; in vivo, 1200 mg/kg): 6620 ng·h/mL; Cmax (in vivo; in vivo, 1200 mg/kg): 6620 ng/mL; AUC0-t (in vivo; in vivo, 4.8 g/kg): 6620 ng·h/mL; AUC(0-inf) (in vivo; in vivo, 4.8 g/kg): 6690 ng·h/mL; CL/F (in vivo; in vivo, 4.8 g/kg): 38.3 mL/min/kg; Cmax (in vivo; in vivo, 4.8 g/kg): 6620 ng/mL; MRT last (in vivo; in vivo, 4.8 g/kg): 0.83 ± 0.06 h; Tmax (in vivo; in vivo, 4.8 g/kg): 0.31 ± 0.12 h; Vd/F (in vivo; in vivo, 4.8 g/kg): 2 ± 0.2 L/kg; half-life (in vivo; in vivo, 4.8 g/kg): 0.6 ± 0.07 h |
| O=C(CC(O)(CC(=O)OCc1ccc(O[C@@H]2O[C@H](CO)[C@@H](O)[C@H](O)[C@H]2O)cc1)C(=O)O)OCc1ccc(O[C@@H]2O[C@H](CO)[C@@H](O)[C@H](O)[C@H]2O)cc1 [PC, Parishin C] | – | – | 30.1 ± 9.6 ng·h/mL | 41.5 ± 15.7 ng·h/mL | 3078 ± 1070 | 12.1 ± 4.6 ng/mL | 1.68 ± 0.29 | 2.35 ± 2.08 | 1.13 ± 0.35 | 543.6 ± 442.8 L/kg | 266.7 ± 78.4 | 56.4 ± 16.2 | 71.1 ± 18.5 | 1740 | 21.5 ± 5.8 | 1.78 ± 0.3 | 0.94 ± 0.5 | 1.84 ± 0.56 | BBB penetration / cerebral distribution (in words) ([1]; rat, in vivo, po): superior BBB permeability; CLz/F increase in MCAO rats compared to controls [2, 7]: 1.4–2.0 fold |
| O=C(O)CC(O)(CC(=O)OCc1ccc(O[C@@H]2O[C@H](CO)[C@@H](O)[C@H](O)[C@H]2O)cc1)C(=O)O (some centres unmarked) [PE, Parishin E] | moderate cerebral distribution | 1,148 ± 530 ng*h/mL | 1,107.5 ± 517.6 ng*h/mL | 1,147.5 ± 530.4 ng*h/mL | – | 324.9 ± 129.0 ng/mL | 2.68 ± 0.76 | 1.95 ± 1.03 | 1.25 ± 0.46 | 113.9 ± 64.2 L/kg | – | 1210 | 1310 | 697 | 375 ± 45.5 | 2.41 ± 0.33 | 1.13 ± 0.35 | 1.82 ± 1.13 | concentration at 12 h ([1]; male, Sprague-Dawley, rat, brain, oral, 1200 mg/kg, MCAO rats, 12 h post-final dosing): 4.25 ± 2.46 ng/g; AUC0-t (in vivo; plasma, 1200 mg/kg): 1310 ng·h/mL; Vd/F (in vivo; plasma, 4.8 g/kg): 78.6 ± 24.2 L/kg |
| O=C(CC(O)(CC(=O)OCc1ccc(O[C@@H]2O[C@H](CO)[C@@H](O)[C@H](O)[C@H]2O)cc1)C(=O)OCc1ccc(O[C@@H]2O[C@H](CO)[C@@H](O)[C@H](O)[C@H]2O)cc1)OCc1ccc(O[C@@H]2O[C@H](CO)[C@@H](O)[C@H](O)[C@H]2O)cc1 [PA, Parishin A] | superior BBB permeability | – | 75.4 ± 29.3 ng·h/mL | 85.9 ± 25.0 ng·h/mL | – | 41.5 ± 18.5 ng/mL | 1.33 ± 0.27 | 1.41 ± 1.75 | 0.78 ± 0.31 | 1706.9 ± 1891.6 L/kg | 518.7 ± 88.3 | 148 ± 21.9 | 153 ± 23.5 | 8150 | 79.8 ± 9.8 | 1.26 ± 0.09 | 0.94 ± 0.18 | 0.74 ± 0.1 | average GAS molecules released per parent compound [3]: 1.5; conversion efficiency of partial hydrolysis in vivo [3]: 50%; CLz/F increase in MCAO rats compared to controls ([2]; rat, in vivo): 1.4–2.0 fold |
| OCc1ccc(O)cc1 [HBA, 4-hydroxybenzyl alcohol] | – | – | – | – | – | – | – | – | – | – | – | – | – | – | – | – | – | – | concentration in rats (in words) ([2]; rats after oral GEB extract): very low |
| N[C@@H](CCC(=O)N[C@@H](CSCc1ccc(O)cc1)C(=O)NCC(=O)O)C(=O)O [4-HBG, S-(4-hydroxybenzyl) glutathione] | – | 129 ± 53 ng·h/mL | 124.8 ± 51.3 ng·h/mL | 129.1 ± 52.8 ng·h/mL | 1050 ± 367 | 24.6 ± 11.2 ng/mL | 4.37 ± 0.50 | 2.03 ± 0.24 | 3.75 ± 0.71 | 186.8 ± 73.0 L/kg | – | 113 ± 37.7 | 120 ± 37 | 1090 | 24.1 ± 8.4 | 4.18 ± 0.51 | 3.5 ± 0.93 | 2.27 ± 1.14 | Tmax ([2]; MCAO rats, GEB extract oral): 2.03 ± 0.2 h; AUC0-t (in vivo; plasma, 1200 mg/kg): 120 ± 37 ng·h/mL; Tmax (in vivo; plasma, 1200 mg/kg): 2.3 ± 1.1 h; Vd/F (in vivo; plasma, 4.8 g/kg): 212 ± 102 L/kg |
| COCCOC(=O)C1=C(C)NC(C)=C(C(=O)OC(C)C)C1c1cccc([N+](=O)[O-])c1 (centres unmarked) [NMDP, nimodipine] | – | – | – | – | – | – | – | – | – | – | – | – | – | – | – | – | – | – | therapeutic effect on neurological deterioration, weight loss and infarction [4]: improved these outcomes |
| O=C(O)CC(O)(CC(=O)OCc1ccc(O[C@@H]2O[C@H](CO)[C@@H](O)[C@H](O)[C@H]2O)cc1)C(=O)OCc1ccc(O[C@@H]2O[C@H](CO)[C@@H](O)[C@H](O)[C@H]2O)cc1 (some centres unmarked) [PB, Parishin B] | superior BBB permeability | – | 108.0 ± 48.8 ng·h/mL | 123.7 ± 38.8 ng·h/mL | 5497 ± 1755 | 48.8 ± 22.9 ng/mL | 1.63 ± 0.53 | 2.16 ± 2.76 | 0.72 ± 0.31 | 1,034.1 ± 1,468.2 L/kg | 237.9 ± 98.4 | 215 ± 37.4 | 230 ± 50.9 | 2790 | – | 1.42 ± 0.13 | 1 | – | Cmax [2, 9]: 112.8 ± 22.8 ng/mL; T1/2 [2, 9]: 1.01 ± 0.42 h; CLz/F increase in MCAO rats compared to controls ([2]; rat, in vivo): 1.4–2.0 fold |
